Results taken from PubChem BioAssay (NCI).
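Five compound concentrations were applied to cells in 96-well plates for 48 hours; endpoints were derived by simple linear interpolation of the resulting dose-response curve. Abbreviation: GI50, concentration required for 50% inhibition of growth. The concentration for full growth arrest is given as TGI.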

Assays:
Test in all cases: inhibition of tumour cell growth, NCI panel, 48 h
786-0 renal = test system: 786-0 renal
A498 renal = test system: A498 renal
A549 NSCLC = test system: A549 NSCLC
ACHN renal = test system: ACHN renal
CAKI-1 renal = test system: CAKI-1 renal
CCRF-CEM leukemia = test system: CCRF-CEM leukemia
COLO 205 colon = test system: COLO 205 colon
DLD-1 colon = test system: DLD-1 colon
DMS 114 small cell lung = test system: DMS 114 small cell lung
DMS 273 small cell lung = test system: DMS 273 small cell lung
EKVX NSCLC = test system: EKVX NSCLC
HCC-2998 colon = test system: HCC-2998 colon
HCT-116 colon = test system: HCT-116 colon
HCT-15 colon = test system: HCT-15 colon
HL-60(TB) leukemia = test system: HL-60(TB) leukemia
HOP-62 NSCLC = test system: HOP-62 NSCLC
HOP-92 NSCLC = test system: HOP-92 NSCLC
HT29 colon = test system: HT29 colon
IGROV1 ovarian = test system: IGROV1 ovarian
K-562 leukemia = test system: K-562 leukemia
KM12 colon = test system: KM12 colon
KM20L2 colon = test system: KM20L2 colon
LOX IMVI melanoma = test system: LOX IMVI melanoma
LXFL 529 NSCLC = test system: LXFL 529 NSCLC
M14 melanoma = test system: M14 melanoma
M19-MEL melanoma = test system: M19-MEL melanoma
MALME-3M melanoma = test system: MALME-3M melanoma
MOLT-4 leukemia = test system: MOLT-4 leukemia
NCI-H226 lung = test system: NCI-H226 lung
NCI-H23 lung = test system: NCI-H23 lung
NCI-H460 lung = test system: NCI-H460 lung
NCI-H522 lung = test system: NCI-H522 lung
OVCAR-3 ovarian = test system: OVCAR-3 ovarian
OVCAR-4 ovarian = test system: OVCAR-4 ovarian
OVCAR-5 ovarian = test system: OVCAR-5 ovarian
OVCAR-8 ovarian = test system: OVCAR-8 ovarian
RPMI-8226 leukemia = test system: RPMI-8226 leukemia
RXF 393 renal = test system: RXF 393 renal
SF-268 CNS = test system: SF-268 CNS
SF-295 CNS = test system: SF-295 CNS
SF-539 CNS = test system: SF-539 CNS
SK-MEL-2 melanoma = test system: SK-MEL-2 melanoma
SK-MEL-28 melanoma = test system: SK-MEL-28 melanoma
SK-MEL-5 melanoma = test system: SK-MEL-5 melanoma
SK-OV-3 ovarian = test system: SK-OV-3 ovarian
SN12C renal = test system: SN12C renal
SNB-19 CNS = test system: SNB-19 CNS
SNB-75 CNS = test system: SNB-75 CNS
SNB-78 CNS = test system: SNB-78 CNS
SW-620 colon = test system: SW-620 colon
TK-10 renal = test system: TK-10 renal
U251 CNS = test system: U251 CNS
UACC-257 melanoma = test system: UACC-257 melanoma
UACC-62 melanoma = test system: UACC-62 melanoma
UO-31 renal = test system: UO-31 renal
HOP-18 NSCLC = test system: HOP-18 NSCLC
SR leukemia = test system: SR leukemia
XF 498 CNS = test system: XF 498 CNS

N#CCC(=O)NC1C2CC3CC(C2)CC1C3 (configuration not stated)
TGI (786-0 renal): 35.8 µM
TGI (A498 renal): 30.2 µM
TGI (A549 NSCLC): > 100 µM
TGI (ACHN renal): 33.3 µM
TGI (CAKI-1 renal): 34.1 µM
TGI (CCRF-CEM leukemia): > 100 µM
TGI (COLO 205 colon): 34 µM
TGI (DLD-1 colon): 48.9 µM
TGI (DMS 114 small cell lung): 30.5 µM
TGI (DMS 273 small cell lung): 48.2 µM
TGI (EKVX NSCLC): 33.9 µM
TGI (HCC-2998 colon): 31.9 µM
TGI (HCT-116 colon): 29.2 µM
TGI (HCT-15 colon): 35.9 µM
TGI (HL-60(TB) leukemia): 61.6 µM
TGI (HOP-62 NSCLC): 41.7 µM
TGI (HOP-92 NSCLC): 36.1 µM
TGI (HT29 colon): 33.1 µM
TGI (IGROV1 ovarian): 59.1 µM
TGI (K-562 leukemia): > 100 µM
TGI (KM12 colon): 32.5 µM
TGI (KM20L2 colon): 33.6 µM
TGI (LOX IMVI melanoma): 23.8 µM
TGI (LXFL 529 NSCLC): > 100 µM
TGI (M14 melanoma): 41.6 µM
TGI (M19-MEL melanoma): > 100 µM
TGI (MALME-3M melanoma): 42.6 µM
TGI (MOLT-4 leukemia): > 100 µM
TGI (NCI-H226 lung): 48.5 µM
TGI (NCI-H23 lung): 32.6 µM
TGI (NCI-H460 lung): 32.3 µM
TGI (NCI-H522 lung): 31 µM
TGI (OVCAR-3 ovarian): 32 µM
TGI (OVCAR-4 ovarian): 50.5 µM
TGI (OVCAR-5 ovarian): 36.9 µM
TGI (OVCAR-8 ovarian): 33.1 µM
TGI (RPMI-8226 leukemia): > 100 µM
TGI (RXF 393 renal): 30.2 µM
TGI (SF-268 CNS): 35.7 µM
TGI (SF-295 CNS): 32 µM
TGI (SF-539 CNS): 32.3 µM
TGI (SK-MEL-2 melanoma): 55.7 µM
TGI (SK-MEL-28 melanoma): 43.3 µM
TGI (SK-MEL-5 melanoma): 27.9 µM
TGI (SK-OV-3 ovarian): 78.6 µM
TGI (SN12C renal): 31.5 µM
TGI (SNB-19 CNS): 32.5 µM
TGI (SNB-75 CNS): 33.5 µM
TGI (SNB-78 CNS): 43 µM
TGI (SW-620 colon): 51.7 µM
TGI (TK-10 renal): 46.2 µM
TGI (U251 CNS): 29.8 µM
TGI (UACC-257 melanoma): 47.2 µM
TGI (UACC-62 melanoma): 28.7 µM
TGI (UO-31 renal): > 100 µM

c1cc[c]([Pb]([c]2ccccc2)[c]2ccccc2)cc1
GI50 (786-0 renal): 11.4 µM
TGI (786-0 renal): 33.2 µM
GI50 (A498 renal): 16 µM
TGI (A498 renal): 46.2 µM
GI50 (A549 NSCLC): 60 µM
TGI (A549 NSCLC): > 100 µM
GI50 (ACHN renal): 33.4 µM
TGI (ACHN renal): > 100 µM
GI50 (CAKI-1 renal): 30 µM
TGI (CAKI-1 renal): > 100 µM
GI50 (CCRF-CEM leukemia): 10.1 µM
TGI (CCRF-CEM leukemia): > 100 µM
GI50 (COLO 205 colon): 14.8 µM
TGI (COLO 205 colon): 30.3 µM
GI50 (DLD-1 colon): 11.9 µM
TGI (DLD-1 colon): 29.6 µM
GI50 (DMS 114 small cell lung): 1.92 µM
TGI (DMS 114 small cell lung): 12.7 µM
GI50 (DMS 273 small cell lung): 10.4 µM
TGI (DMS 273 small cell lung): 27.8 µM
GI50 (EKVX NSCLC): 25.2 µM
TGI (EKVX NSCLC): 76.8 µM
GI50 (HCC-2998 colon): 14.8 µM
TGI (HCC-2998 colon): 37.3 µM
GI50 (HCT-116 colon): 10.5 µM
TGI (HCT-116 colon): 27.1 µM
GI50 (HCT-15 colon): 12.4 µM
TGI (HCT-15 colon): 28.4 µM
GI50 (HL-60(TB) leukemia): 41.9 µM
TGI (HL-60(TB) leukemia): > 100 µM
GI50 (HOP-18 NSCLC): 16.8 µM
TGI (HOP-18 NSCLC): 50.8 µM
GI50 (HOP-62 NSCLC): 36.9 µM
TGI (HOP-62 NSCLC): 79.3 µM
GI50 (HOP-92 NSCLC): 10.7 µM
TGI (HOP-92 NSCLC): 47.8 µM
GI50 (HT29 colon): 16.4 µM
TGI (HT29 colon): 49.6 µM
GI50 (IGROV1 ovarian): 10 µM
TGI (IGROV1 ovarian): 32 µM
GI50 (K-562 leukemia): 11 µM
TGI (K-562 leukemia): 61.4 µM
GI50 (KM12 colon): 23.4 µM
TGI (KM12 colon): > 100 µM
GI50 (KM20L2 colon): 23.3 µM
TGI (KM20L2 colon): 91.6 µM
GI50 (LOX IMVI melanoma): 3.24 µM
GI50 (LXFL 529 NSCLC): 4.03 µM
TGI (LXFL 529 NSCLC): 17.2 µM
GI50 (M14 melanoma): 14.2 µM
TGI (M14 melanoma): 47.4 µM
GI50 (MALME-3M melanoma): 16.7 µM
TGI (MALME-3M melanoma): 36.6 µM
GI50 (MOLT-4 leukemia): 15.7 µM
TGI (MOLT-4 leukemia): 71.7 µM
GI50 (NCI-H23 lung): 3.34 µM
TGI (NCI-H23 lung): 15.8 µM
GI50 (NCI-H460 lung): 20.2 µM
TGI (NCI-H460 lung): > 100 µM
GI50 (NCI-H522 lung): 2.53 µM
TGI (NCI-H522 lung): 15.1 µM
GI50 (OVCAR-3 ovarian): 10.4 µM
TGI (OVCAR-3 ovarian): 23.8 µM
GI50 (OVCAR-4 ovarian): 22 µM
TGI (OVCAR-4 ovarian): > 100 µM
GI50 (OVCAR-5 ovarian): 11 µM
TGI (OVCAR-5 ovarian): 34.9 µM
GI50 (OVCAR-8 ovarian): 12.4 µM
TGI (OVCAR-8 ovarian): 72.5 µM
GI50 (RPMI-8226 leukemia): 14.5 µM
TGI (RPMI-8226 leukemia): 90 µM
GI50 (SF-268 CNS): 7.34 µM
TGI (SF-268 CNS): 50.7 µM
GI50 (SF-295 CNS): 21.9 µM
TGI (SF-295 CNS): 58.3 µM
GI50 (SF-539 CNS): 14.2 µM
TGI (SF-539 CNS): 43.2 µM
GI50 (SK-MEL-2 melanoma): 6.04 µM
TGI (SK-MEL-2 melanoma): 24 µM
GI50 (SK-MEL-28 melanoma): 16.5 µM
TGI (SK-MEL-28 melanoma): 36.6 µM
GI50 (SK-MEL-5 melanoma): 12.3 µM
TGI (SK-MEL-5 melanoma): 32.6 µM
GI50 (SK-OV-3 ovarian): 11.2 µM
TGI (SK-OV-3 ovarian): 38.2 µM
GI50 (SN12C renal): 8.17 µM
TGI (SN12C renal): 22.3 µM
GI50 (SNB-19 CNS): 16.5 µM
TGI (SNB-19 CNS): 38.7 µM
GI50 (SNB-75 CNS): 6.8 µM
TGI (SNB-75 CNS): 45 µM
GI50 (SNB-78 CNS): 13.2 µM
TGI (SNB-78 CNS): > 100 µM
GI50 (SR leukemia): 14.4 µM
TGI (SR leukemia): 74.6 µM
GI50 (SW-620 colon): 21.2 µM
TGI (SW-620 colon): 57.1 µM
GI50 (U251 CNS): 11.3 µM
TGI (U251 CNS): 23.9 µM
GI50 (UACC-257 melanoma): 19 µM
TGI (UACC-257 melanoma): 59.1 µM
GI50 (UACC-62 melanoma): 6.1 µM
TGI (UACC-62 melanoma): 19.8 µM
GI50 (UO-31 renal): 26.8 µM
TGI (UO-31 renal): 88.6 µM
GI50 (XF 498 CNS): 23.9 µM
TGI (XF 498 CNS): 42.7 µM
